Patent US20250177285A1, “BANANA STEM SAP COMPOSITIONS AND METHODS OF USE THEREOF” (Tano Pharmaceuticals Inc., priority 2023, published 2025)
Marks after values point to notes of the source that are not given here. Residues, ends and D or L forms follow the SMILES beside them.

Tests used:
elastase = biological target: T1, elastase (Sus scrofa, UniProt P00772); test: Elastase activity assay; type: biochemical, human
T1 construct: purchased Promega V1891
Procedure: (§1) Test Materials. Test materials (Table 8) were stored at +4° C. and were diluted in distilled sterile water immediately before testing. All experimental conditions were tested in biological triplicates.
Elastase activity assay. The reaction was initiated by adding 10 μl of 20 μg/ml elastase enzyme (Promega, cat. #V1891, lot #409147) to the assay mixture [10 mM Tris-HCl pH 7.5+/−0.5, 1 mg/ml elastase substrate VIII (Suc-Ala-Ala-Ala-pNA)] containing different experimental conditions, and the reaction kinetics were monitored at room temperature by measuring absorbance at 405 nm in the SpectraMax i3x microplate reader. Sterile distilled water was the negative, and EI III (Calbiochem cat. #324745) was the positive control. […]. Colorimetric readings were adjusted by subtracting the absorbance in wells containing the same experimental conditions but without elastase and were expressed as % of water control.
(§2) Statistical analysis. Statistical significance threshold was established as minimum 20% modulation and p value <0.05 as determined by two-tailed Student test.

[1] = test system: type I collagen output by normal human neonatal dermal fibroblasts; test: Type I collagen output, sandwich ELISA of conditioned medium; type: cell-based; settings: for effect on type I collagen (in words): tested range
Procedure: (§3) Test materials. Test materials (Table 2) were stored at +4° C. and were diluted in distilled sterile water immediately before testing. Cells & experimental procedures. Normal dermal human neonatal dermal fibroblasts (ScienCell; […] The next day (Day 1), test materials, reference substances [MAP (100 μg/ml), MAP (50 μg/ml) and niacinamide (400 μg/ml, 250 μg/ml and 80 μg/ml, based on PMC7950568 and PMC8622652)] and negative control (H2O) were added, and cell culture was pursued for three additional days, afterward the cell culture conditioned medium was used for type I & IV collagen quantification, while cells were formalin-fixed and type III collagen was measured by direct ELISA. The effect of the test articles on cell numbers was determined using the sulforhodamine B method (Table 3). MAP: magnesium ascorbyl phosphate. All colorimetric measurements were acquired using multi-mode SpectraMax i3x platform (Molecular Devices, San Jose CA) assisted with SoftMax 7.0.3. PRO. 21 software. […] [table]

[2] = test system: type III collagen output by normal human neonatal dermal fibroblasts; test: Type III collagen, direct ELISA on formalin-fixed cells; type: cell-based; settings: for effect on type III collagen (in words): tested range
Procedure: as §3

[3] = test system: normal human neonatal dermal fibroblasts; test: Cell numbers, sulforhodamine B method; type: cell-based
Procedure: as §3

[4] = test system: type IV collagen output by normal human neonatal dermal fibroblasts; test: Type IV collagen output, ELISA of conditioned medium; type: cell-based; settings: for effect on type IV collagen (in words): tested range
Procedure: as §3

[5] = test system: Clostridium collagenase IV (a generic metalloproteinase); test: Metalloproteinase (collagenase) activity assay, Enzchek kit, quenched fluorescent gelatin; type: biochemical
Procedure: as §1
Metalloproteinase activity assay. The activity of the test materials towards collagenase proteolytic activity was examined by adding dilutions of test articles to the Enzchek kit reaction mixture (Molecular Probes/Invitrogen/ThermoFisher). Clostridium collagenase IV (a generic metalloproteinase) was used as the protease and quenched fluorescent gelatin was the substrate. Phenanthroline, a potent collagenase inhibitor was used as positive control at 1000 μM. The kinetics of the release of the digested, fluorescent gelatin were measured at excitation/emission wavelengths of 485/530 nm with the SpectraMax i3x microplate reader. Fluorescence readings were adjusted by subtracting the values in wells containing no collagenase and were expressed in arbitrary fluorescence units and as % of water-treated controls.
as §2

T1 sequence (P00772 27-266): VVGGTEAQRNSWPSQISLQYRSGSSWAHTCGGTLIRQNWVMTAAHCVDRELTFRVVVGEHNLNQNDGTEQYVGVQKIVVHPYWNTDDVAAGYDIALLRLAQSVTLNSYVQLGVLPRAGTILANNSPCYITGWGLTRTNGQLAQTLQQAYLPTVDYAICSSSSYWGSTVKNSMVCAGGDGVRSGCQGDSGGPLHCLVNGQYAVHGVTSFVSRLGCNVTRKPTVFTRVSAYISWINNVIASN

For COC(=O)CCC(=O)N[C@@H](C)C(=O)N[C@@H](C)C(=O)N1CCC[C@H]1C(=O)N[C@H](C(=O)CCl)C(C)C [El III] (HELM PEPTIDE1{[COC(=O)CCC(=O)[*:2]].A.A.P.V.[ClC[*:1]]}$$$$V2.0), the “Elastase activity (% Control)” value (elastase; 1 ug/mL, t = 20 min) was 9*** % Control and the “suppressive effect on elastase activity (in words)” value (elastase; tested range) was “nearly complete inhibitory activity”.

For O=C1O[C@H]([C@@H](O)CO)C([O-])=C1OP(=O)([O-])[O-].O=C1O[C@H]([C@@H](O)CO)C([O-])=C1OP(=O)([O-])[O-].[Mg+2].[Mg+2].[Mg+2] [MAP, magnesium ascorbyl phosphate], the “Type I collagen (% Control)” value ([1]; 50 ug/mL) was 148 % Control, the “Type I collagen (% Control)” value ([1]; 100 ug/mL) was 166 % Control and the “effect on type I collagen (in words)” value [1] was “strong stimulatory response”. The “Type III collagen (% Control)” value ([2]; 50 ug/mL) was 1977 % Control, the “Type III collagen (% Control)” value ([2]; 100 ug/mL) was 1874 % Control and the “effect on type III collagen (in words)” value [2] was “strong stimulatory response”. For the same compound, the “Cell Numbers (% Control)” value ([3]; 50 ug/mL) was 130 % Control, the “Cell Numbers (% Control)” value ([3]; 100 ug/mL) was 139 % Control and the “Type IV collagen (% Control)” value ([4]; 50 ug/mL) was 694 % Control. The “Type IV collagen (% Control)” value ([4]; 100 ug/mL) was 703 % Control and the “effect on type IV collagen (in words)” value [4] was “strong stimulatory response”.

In the case of c1cnc2c(c1)ccc1cccnc12 [Phenanthroline], the “MP activity (% CTR)” value ([5]; positive control at 1000 μM, t = 20 min) is reported as 0* % CTR and the “inhibitory effect on collagenase (MP) / generic metalloproteinase activity (in words)” value ([5]; tested range) is reported as “total inhibitory activity”.

With NC(=O)c1cccnc1 [niacinamide] the “Type I collagen (% Control)” value ([1]; 80 ug/mL) was 94 % Control, the “Type I collagen (% Control)” value ([1]; 250 ug/mL) was 130 % Control and the “Type I collagen (% Control)” value ([1]; 400 ug/mL) was 130 % Control. For the same compound, the “type I collagen increase / upregulation (description summary)” value ([1]; concentration not given) was “up to 130%”, the “effect on type I collagen (in words)” value [1] was “upregulated type I collagen at the two highest tested concentrations” and the “Type III collagen (% Control)” value ([2]; 80 ug/mL) was 106 % Control. For the same compound, the “Type III collagen (% Control)” value ([2]; 250 ug/mL) was 106 % Control, the “Type III collagen (% Control)” value ([2]; 400 ug/mL) was 111 % Control and the “effect on type III collagen (in words)” value [2] was “no effect”. The “Cell Numbers (% Control)” value ([3]; 80 ug/mL) was 99 % Control, the “Cell Numbers (% Control)” value ([3]; 250 ug/mL) was 99 % Control and the “Cell Numbers (% Control)” value ([3]; 400 ug/mL) was 96 % Control. For the same compound, the “Type IV collagen (% Control)” value ([4]; 80 ug/mL) was 88 % Control, the “Type IV collagen (% Control)” value ([4]; 250 ug/mL) was 86 % Control and the “Type IV collagen (% Control)” value ([4]; 400 ug/mL) was 104 % Control. The “effect on type IV collagen (in words)” value [4] was “no effect”.
